The record followed here is patent US20260069606A1, “Oxidative Stress and Diabetes Treatment with Cobinamide” (The Regents of the University of California, priority 2022, published 2026).

The subject of data set [1] is streptozotocin diabetic mice. The experiment in a line: Fasting blood glucose and intraperitoneal glucose tolerance test. As to conditions: fasting blood glucose and IPGTT after three months. The class given is in vivo. The source says:
The water was replenished twice a week.
Over the three-month treatment period, the non-diabetic mice gained an average of 4.1±0.8 g. while the diabetic mice lost an average of 0.3 g, with wide variation in weight change among the latter mice.

For data set [2], the system named is D. melanogaster. The experiment in a line: Survival of fruit flies during paraquat poisoning. The class given is in vivo. As to conditions: 20 mM paraquat with 0.8 mM drug in food, over 7 d.
Protocol: The number of live flies was counted each day for 7 d. The experiment was repeated seven times, for a total of 70 flies per condition. The percent surviving flies was calculated; error bars represent standard deviations and are shown in one direction only for sake of clarity. […] Chi, cobinamide in Panel A and histidyl-cobinamide in Panels B-K; Imp, imisopasem; MnTP, MnTBAP; CbL, cobalamin; DNPH, 2,4-dinitrophenylhydrazine; ND, non-diabetic; D, diabetic; Veh, vehicle.
To test cobinamide in a whole animal, D. melanogaster was selected for initial studies, and oxidative stressed was increased in the files by administering paraquat in their food. Cobinamide was again compared to imisopasem, MnTBAP, and hydroxocobalamin, all administered in food.
Data set [3] can be described thus: Reaction with hydrogen peroxide, H2O2-specific electrode. The class given is biochemical. How it is done: FIGS. 2A-2F. Cobinamide Functions as a Catalase Mimetic and Reacts with Peroxynitrite. […]. Hydrogen peroxide (final concentration 50 μM) was added to solutions containing increasing concentrations of Chi(III) (FIG. 2A) or Chi(II) (FIG. 2C), and the H2O2 concentration was measured over time using a H2O2-specific electrode. The log of the velocity in the presence of Chi(III) (FIG. 2B) or Chi(II) (v) (FIG. 2D) over the velocity in their absence (Vo) is plotted against the log of their concentrations at 20 min over their concentrations at zero time. These plots yield a reaction order with respect to Chi(III) and Cbi(II) of 0.7. The experiments were repeated three times with similar results. Dotted lines show 95% confidence intervals. FIG. 2E. […] The Chi(III) spectra are slightly different from those shown in FIG. 1G because at pH 11, dihydroxo-cobinamide is generated, whereas at pH 7.1, aquohydroxo-cobinamide is the predominant species. The spectra of aquohydroxo- and dihydroxo-cobinamide are known to be different^65. FIG. 2F. Varying concentrations of Chi(II) from 1 to 10 μM were mixed with 10 μM peroxynitrite in a stopped-flow instrument, and absorption at 315 nm was monitored for 0.5 sec. The results for 5 μM Cbi(II) are shown; red circles are the observed data, and the black line is a two-phase non-linear regression curve generated by Prism 7.04 software. […] The experiment was repeated three times with similar results. Dotted lines show 95% confidence intervals.
Table I. Reaction Rates of Cobinamide (Cbi), Cobalamin, Imisopasem, and MnTBAP with Reactive Oxygen and Nitrogen Species. Reactions of the indicated compounds with O2·^−, ONOO^−, and ·NO are all second order reactions with rate constants in units of M^−1 s^−1. The reactions of Cbi(III) and Cbi(II) with H2O2 are third order with rate constant units of M^−2 s^−1. Chi(II) and cobalamin(II) bind nitric oxide, so a Ka is shown in units of M^−1. For the new data presented in this study, rate constants were measured for O2·^− using a hypoxanthine-xanthine oxidase-cytochrome c system, for H2O2 using a H2O2-specific sensor (World Precision Instruments), and for ONOO^− using a stopped-flow instrument. Published rate constants for Cu/Zn and Mn superoxide dismutases (SOD) and catalase are shown for reference.^a,b Letters and numbers in parenthesis refer to footnotes and references, respectively.
Both Cbi(III) and Chi(II) react with H2O2, and the reaction was essentially first order with respect to Cbi(III) and Cbi(II) (FIG. 2A-D), and second order with respect to H2O2 for both cobinamide species. […]

For data set [4] the following is noted: mouse, in vivo.
Protocol: It seemed possible, therefore, that the cobinamide administered to the mice could have increased their blood pressure, since ·NO is a potent vasodilator. Because diabetes can increase blood pressure, these studies were performed on a parallel set of non-diabetic mice of the same strain and sex and using the same concentration of histidyl-cobinamide in the drinking water as in the above-described studies.
For data set [5], the system named is H9c2 cells. Kind of data set: Mitochondrial membrane potential, JC-1 red to green fluorescence. Type of data set: cell-based, rat. On the procedure:
FIGS. 3A-3H. […] FIGS. 3A-3B. […] FIG. 3A. […] FIG. 3B. […] FIGS. 3C-3D. […] FIG. 3D. […] FIGS. 3E-3F. […] FIG. 3E. Representative blots are shown. […] FIG. 3F. […] FIG. 3G. […] FIG. 3H.
The cells were then washed once with PBS, placed back in the DMEM experimental medium, and incubated with the indicated drugs for 30 min. At the end of the incubation period, nuclei of both the MitoSOX Red- and JC-1-treated cells were stained with […] 4′,6-diamidino-2-phenyl-indole (DAPI) for 3 min, washed once with PBS, and returned to the DMEM experimental medium. The cover slips were removed from the wells, mounted in the DMEM experimental medium, and red (MitoSOX Red and JC-1 aggregates), green (JC-1 monomers), and blue (DAPI) fluorescence intensity was assessed using a Keyence BZ-X700 fluorescence microscope at the following paired excitation/emission wavelengths, respectively: 560/630, 490/525, and 360/460 nm.
Increased mitochondrial O2·^− by rotenone would be expected to reduce the mitochondrial membrane potential (ΔΨm), due in part to activation of uncoupling proteins^39. […] Rotenone caused an almost complete loss of red fluorescence and a striking increase in green fluorescence in the cells, indicating a marked decrease in ΔΨm (FIGS. 3C-3D).

For `C/C1=C2/[N-][C@H]([C@H](CC(N)=O)[C@@]2(C)CCC(=O)NC[C@@H](C)O)[C@]2(C)N=C(/C(C)=C3N=C(/C=C4N=C1[C@@H](CCC(N)=O)C\4(C)C)[C@@H](CCC(N)=O)[C@]\3(C)CC(N)=O)[C@@H](CCC(N)=O)[C@]2(C)CC(N)=O.[Co+3]` [cobinamide, aquohydroxo-cobinamide], the “Glucose intolerance versus mice not receiving drug” value in data set [1] is listed as “same degree of glucose intolerance”. Also, the “Mortality of paraquat-exposed flies” value in data set [2] is recorded as less than 30%. Also, the “Reaction order with respect to the cobinamide species in the reaction with H2O2” value in data set [3] (50 μM H2O2) came out at 0.7. Further, the “Apparent rate constant, reaction with hydrogen peroxide (H2O2)” value in data set [3] (third order, H2O2-specific sensor, new data of this study, listed as Cbi(III)) is recorded as 8.0 × 10^2 M^−2 s^−1. In addition, the Blood pressure result in data set [4] is listed as “no change in blood pressure”. The “JC-1 red to green fluorescence ratio (ΔΨm) in rotenone-treated cells” value in data set [5] (H9c2, 5 μM rotenone 30 min, drugs at 2.5 μM) is “restored the ratio of red to green fluorescence”. Further, the “JC-1 red to green fluorescence ratio, drug alone” value in data set [5] (H9c2, vehicle-treated cells without rotenone, 2.5 μM) was “no change”.
